Source: ChEMBL document CHEMBL1201862, “PubChem BioAssay data set” (2004)
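Results reflect a 48-hour exposure of cells in 96-well plates to compound at five concentrations. GI50 marks 50% less growth.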 Calls of active or inactive are those of the source. No stated cut-off is given here; in the data, active = GI50 up to about 1.1 µM and inactive = higher.

Assays:
Experiment in all cases: inhibition of tumour cell growth, NCI panel, 48 h
RPMI-8226 = test system: RPMI-8226
HCC 2998 = test system: HCC 2998
786-0 = test system: 786-0
SNB-19 = test system: SNB-19
EKVX = test system: EKVX
HCT-116 = test system: HCT-116
A498 = test system: A498
MOLT-4 = test system: MOLT-4
COLO 205 = test system: COLO 205
OVCAR-5 = test system: OVCAR-5
SF-268 = test system: SF-268
SF-539 = test system: SF-539
OVCAR-3 = test system: OVCAR-3
ACHN = test system: ACHN
HL-60 = test system: HL-60
SW-620 = test system: SW-620
HOP-62 = test system: HOP-62
SNB-75 = test system: SNB-75

SMILES | GI50 (RPMI-8226) | GI50 (HCC 2998) | GI50 (786-0) | GI50 (SNB-19) | GI50 (EKVX) | GI50 (HCT-116) | GI50 (A498) | GI50 (MOLT-4) | GI50 (COLO 205) | GI50 (OVCAR-5) | GI50 (SF-268) | GI50 (SF-539) | GI50 (OVCAR-3) | GI50 (ACHN) | GI50 (HL-60) | GI50 (SW-620) | GI50 (HOP-62) | GI50 (SNB-75)
O=c1cc(/C=C/c2ccccc2)c2ccc(O/C(=C\c3ccccc3)c3nc4ccccc4c(=O)o3)cc2o1 | 4.76 µM (inactive) | 33.3 µM (inactive) | 44.3 µM (inactive) | 26 µM (inactive) | 23.7 µM (inactive) | 14.2 µM (inactive) | 34.1 µM (inactive) | 17.6 µM (inactive) | 22.2 µM (inactive) | 44.9 µM (inactive) | 11.8 µM (inactive) | 23.3 µM (inactive) | 15 µM (inactive) | 18.5 µM (inactive) | 12.7 µM (inactive) | 37.5 µM (inactive) | 28 µM (inactive) | 
CN1C(=O)CC2(C)c3cc(C=O)ccc3N(C)C12 (stereo not drawn) |  | > 100 µM (inactive) | > 100 µM (inactive) | > 100 µM (inactive) | > 100 µM (inactive) | > 100 µM (inactive) | > 100 µM (inactive) | > 100 µM (inactive) | > 100 µM (inactive) | > 100 µM (inactive) | > 100 µM (inactive) | > 100 µM (inactive) | > 100 µM (inactive) | > 100 µM (inactive) |  | > 100 µM (inactive) | > 100 µM (inactive) | 69.5 µM (inactive)
COC(=O)C1CCC(N2C(=O)CCC2C(=O)OC)=N1 (stereo not drawn) | > 100 µM (inactive) | > 100 µM (inactive) | > 100 µM (inactive) | > 100 µM (inactive) | > 100 µM (inactive) | > 100 µM (inactive) | > 100 µM (inactive) | > 100 µM (inactive) | > 100 µM (inactive) | > 100 µM (inactive) | > 100 µM (inactive) |  | > 100 µM (inactive) | > 100 µM (inactive) | > 100 µM (inactive) | > 100 µM (inactive) | > 100 µM (inactive) | > 100 µM (inactive)
CCOC(=O)NC(=O)c1cn(CCCCCOC(=O)NCCCCCCNC(=O)OCCCCCn2cc(C(=O)NC(=O)OCC)c(=O)[nH]c2=O)c(=O)[nH]c1=O | > 100 µM (inactive) | > 100 µM (inactive) | > 100 µM (inactive) | > 100 µM (inactive) | > 100 µM (inactive) | > 100 µM (inactive) | > 100 µM (inactive) | > 100 µM (inactive) | > 100 µM (inactive) |  | > 100 µM (inactive) | > 100 µM (inactive) | > 100 µM (inactive) | > 100 µM (inactive) | > 100 µM (inactive) | > 100 µM (inactive) | > 100 µM (inactive) | > 100 µM (inactive)
CC(=O)c1ccc(NC(=O)C(=O)CC(=O)c2sc(-n3nc(-c4ccccc4)cc3-c3ccccc3)nc2C)cc1 | > 100 µM (inactive) | > 100 µM (inactive) | > 100 µM (inactive) | > 100 µM (inactive) | > 100 µM (inactive) | > 100 µM (inactive) | > 100 µM (inactive) | > 100 µM (inactive) | > 100 µM (inactive) | > 100 µM (inactive) | > 100 µM (inactive) | > 100 µM (inactive) | > 100 µM (inactive) | > 100 µM (inactive) | > 100 µM (inactive) | > 100 µM (inactive) | > 100 µM (inactive) | 
CC1(C)C2=CCCC(=O)[C@@]2(C)CC[C@@H]1O | > 100 µM (inactive) | > 100 µM (inactive) | > 100 µM (inactive) | > 100 µM (inactive) | > 100 µM (inactive) | > 100 µM (inactive) |  | > 100 µM (inactive) | > 100 µM (inactive) | > 100 µM (inactive) | > 100 µM (inactive) | > 100 µM (inactive) | > 100 µM (inactive) | > 100 µM (inactive) | > 100 µM (inactive) | > 100 µM (inactive) | > 100 µM (inactive) | > 100 µM (inactive)
CC(=O)OCC1OC(n2c(-c3ccc(C)cc3)cc(-c3ccccc3)c(C#N)c2=O)C(OC(C)=O)C(OC(C)=O)C1OC(C)=O (stereo not drawn) | 67.1 µM (inactive) | > 100 µM (inactive) | > 100 µM (inactive) | > 100 µM (inactive) | > 100 µM (inactive) | > 100 µM (inactive) |  | > 100 µM (inactive) | > 100 µM (inactive) | > 100 µM (inactive) | > 100 µM (inactive) | > 100 µM (inactive) | > 100 µM (inactive) | > 100 µM (inactive) | 48.9 µM (inactive) | > 100 µM (inactive) | > 100 µM (inactive) | 71.6 µM (inactive)
O=C1c2ccccc2C(=O)C2C1C1C(=O)c3ccccc3C(=O)C21 (stereo not drawn) |  | 51.6 µM (inactive) | > 100 µM (inactive) | > 100 µM (inactive) | > 100 µM (inactive) |  |  |  | > 100 µM (inactive) | 42.3 µM (inactive) | 78.2 µM (inactive) | > 100 µM (inactive) | 40.6 µM (inactive) | > 100 µM (inactive) | 58.9 µM (inactive) | > 100 µM (inactive) | > 100 µM (inactive) | 57.4 µM (inactive)
Cc1cc2c(c(C(N)=O)c1C)-c1cccc(F)c1C2=O | > 100 µM (inactive) | > 100 µM (inactive) | > 100 µM (inactive) | > 100 µM (inactive) | > 100 µM (inactive) | 80.2 µM (inactive) | 45.5 µM (inactive) | > 100 µM (inactive) | > 100 µM (inactive) | > 100 µM (inactive) | > 100 µM (inactive) | > 100 µM (inactive) | > 100 µM (inactive) | > 100 µM (inactive) |  | > 100 µM (inactive) | > 100 µM (inactive) | 30.3 µM (inactive)
CCN(CC)CCNc1ccc2ncn3c4ccccc4c(=O)c1c23 | 4.59 µM (inactive) |  | 3.43 µM (inactive) | 9.84 µM (inactive) |  | 0.916 µM (active) | 6.7 µM (inactive) | 2 µM (inactive) | 1.87 µM (inactive) | 7.93 µM (inactive) | 3.99 µM (inactive) | 5.86 µM (inactive) | 12.8 µM (inactive) | 2.24 µM (inactive) | 5.74 µM (inactive) | 2.52 µM (inactive) | 5.81 µM (inactive) | 
O=C(N/C(=C\c1ccccc1Cl)c1nc2ccccc2[nH]1)c1ccccc1 |  | 29.4 µM (inactive) | 32.7 µM (inactive) | 29.3 µM (inactive) | 21.3 µM (inactive) |  |  | 20.6 µM (inactive) | 34.6 µM (inactive) | 30.8 µM (inactive) | 32.7 µM (inactive) | 32.7 µM (inactive) | 29.7 µM (inactive) | 30.5 µM (inactive) | 25.7 µM (inactive) | 27.5 µM (inactive) |  | 
Brc1ccc2c(c1)C1C(CO2)C(c2ccccc2)=NN1c1ccccc1 (stereo not drawn) | 77.6 µM (inactive) | > 100 µM (inactive) | > 100 µM (inactive) | > 100 µM (inactive) | > 100 µM (inactive) | > 100 µM (inactive) | > 100 µM (inactive) | > 100 µM (inactive) | > 100 µM (inactive) | > 100 µM (inactive) | > 100 µM (inactive) |  | > 100 µM (inactive) | > 100 µM (inactive) | 90.8 µM (inactive) | > 100 µM (inactive) | > 100 µM (inactive) | > 100 µM (inactive)
Cc1ccc(-c2cc(=O)c3cc(C)c(C)c(C(=O)O)c3o2)cc1C | > 100 µM (inactive) | > 100 µM (inactive) | > 100 µM (inactive) | > 100 µM (inactive) | > 100 µM (inactive) | > 100 µM (inactive) |  | > 100 µM (inactive) | > 100 µM (inactive) | > 100 µM (inactive) |  | > 100 µM (inactive) | > 100 µM (inactive) | > 100 µM (inactive) | > 100 µM (inactive) | > 100 µM (inactive) | > 100 µM (inactive) | > 100 µM (inactive)
COC(=O)CCC(=O)Nc1cc(Cl)ccc1Cl | > 100 µM (inactive) | > 100 µM (inactive) | > 100 µM (inactive) | > 100 µM (inactive) | > 100 µM (inactive) | > 100 µM (inactive) |  | > 100 µM (inactive) |  | > 100 µM (inactive) | > 100 µM (inactive) | > 100 µM (inactive) | > 100 µM (inactive) | > 100 µM (inactive) | > 100 µM (inactive) | > 100 µM (inactive) | > 100 µM (inactive) | 
C[C@]12CC[C@H](OC3CCCCO3)CC1=CC[C@@H]1C2CC[C@]2(C)/C(=N/O)CCC12 (stereo partly drawn) | 10.6 µM (inactive) | 17.5 µM (inactive) | 20.4 µM (inactive) | 26.5 µM (inactive) | 23.7 µM (inactive) | 16.1 µM (inactive) | > 100 µM (inactive) | 10.9 µM (inactive) | > 10 µM (inactive) | 19.4 µM (inactive) |  | 47.1 µM (inactive) | 17 µM (inactive) | 18.2 µM (inactive) |  | 36.9 µM (inactive) | > 100 µM (inactive) | 20.5 µM (inactive)
O=c1[nH]c2c(O)cccc2c2cc3c(c(O)c12)OCO3 [NARCIPRIMINE] | 25 µM (inactive) | 19.5 µM (inactive) | 25.5 µM (inactive) | 13.6 µM (inactive) | 25.8 µM (inactive) | 13.8 µM (inactive) | 21.2 µM (inactive) | 16.8 µM (inactive) | 13.1 µM (inactive) |  | 23.2 µM (inactive) | 18 µM (inactive) | 21.5 µM (inactive) | 15.8 µM (inactive) | 6.44 µM (inactive) | 26.6 µM (inactive) | 19.2 µM (inactive) | 20.8 µM (inactive)
